Values quoted from earlier work in patent publication US20020037290A1, “Compositions comprising heat shock proteins or alpha(2) macroglobulin, antigenic molecules and saponins, and methods of use thereof” (priority 2000, published 2002).

B1: gp96 derived from the UV6138: heat shock protein gp96(-peptide complex) preparation isolated from the UV-induced UV6138 mouse carcinoma (protein, UniProt P08113 22-802, looked up)
Endoplasmin: DDEVDVDGTVEEDLGKSREGSRTDDEVVQREEEAIQLDGLNASQIRELREKSEKFAFQAEVNRMMKLIINSLYKNKEIFLRELISNASDALDKIRLISLTDENALAGNEELTVKIKCDKEKNLLHVTDTGVGMTREELVKNLGTIAKSGTSEFLNKMTEAQEDGQSTSELIGQFGVGFYSAFLVADKVIVTSKHNNDTQHIWESDSNEFSVIADPRGNTLGRGTTITLVLKEEASDYLELDTIKNLVRKYSQFINFPIYVWSSKTETVEEPLEEDEAAKEEKEESDDEAAVEEEEEEKKPKTKKVEKTVWDWELMNDIKPIWQRPSKEVEEDEYKAFYKSFSKESDDPMAYIHFTAEGEVTFKSILFVPTSAPRGLFDEYGSKKSDYIKLYVRRVFITDDFHDMMPKYLNFVKGVVDSDDLPLNVSRETLQQHKLLKVIRKKLVRKTLDMIKKIADEKYNDTFWKEFGTNIKLGVIEDHSNRTRLAKLLRFQSSHHSTDITSLDQYVERMKEKQDKIYFMAGSSRKEAESSPFVERLLKKGYEVIYLTEPVDEYCIQALPEFDGKRFQNVAKEGVKFDESEKTKESREATEKEFEPLLNWMKDKALKDKIEKAVVSQRLTESPCALVASQYGWSGNMERIMKAQAYQTGKDISTNYYASQKKTFEINPRHPLIRDMLRRIKEDEDDKTVMDLAVVLFETATLRSGYLLPDTKAYGDRIERMLRLSLNIDPEAQVEEEPEEEPEDTSEDAEDSEQDEGEEMDAGTEEEEEETEKESTEKDEL
modifications: bound tumor peptides
notes: heat shock protein gp96(-peptide complex) preparation isolated from the UV-induced UV6138 mouse carcinoma
B2: gp96 derived from the UV6139: gp96-peptide complex derived from UV6139SJ carcinoma cells (protein, UniProt P08113 22-802, looked up)
Endoplasmin: B1 Endoplasmin
modifications: bound tumor peptides
notes: gp96-peptide complex derived from UV6139SJ carcinoma cells
B3: liver-derived gp96: gp96-peptide complex derived from normal liver (protein, UniProt P08113 22-802, looked up)
Endoplasmin: B1 Endoplasmin
modifications: bound peptides

Assays:
[1] = system: bovine serum albumin and cytochrome b5; conditions: Kensil et al., 1991, cited from earlier work; for level of antibody response induced: mice, antigens bovine serum albumin and cytochrome b5; for IgG2a response to cytochrome b5: saponin doses of 20 μg
[2] = mouse, in vivo; cited from earlier work
[3] = system: murine antiidiotype antibody MELIMMUNE-1; conditions: melanoma patients; Livingston et al., 1995; cited from earlier work
UV6138 carcinoma = conditions: cited from earlier work
UV6139SJ carcinoma [4] = conditions: cited from earlier work
UV6139SJ carcinoma [5] = conditions: prior experiments, cited from earlier work; for tumor growth, monitored as the average of two perpendicular diameter measurements: U.S. Pat. No. 5,837,251, established UV6139SJ carcinoma
[6] = previously shown, U.S. Pat. No. 5,837,251
[7] = prior result of U.S. Pat. No. 5,837,251, resistant mice out of mice challenged

| Molecule | level of antibody response induced [1] | IgG2a response to cytochrome b5 [1] | tumor growth, monitored as the average of two perpendicular diameter measurements (UV6139SJ carcinoma [5]) | also measured |
| --- | --- | --- | --- | --- |
| QS-17 | comparable to other commonly used adjuvants | stimulate IgG2a response |  |  |
| QS-18 | comparable to other commonly used adjuvants | stimulate IgG2a response |  |  |
| QS-21 | comparable to other commonly used adjuvants | stimulate IgG2a response |  | toxicity in mice [2]: least toxic; serological response to MELIMMUNE-1 [3]: significantly increased |
| B1 |  |  |  | immunity to the UV6138 challenge (UV6138 carcinoma; [6]): rendered the mice immune; resistance conferred against the UV6138 cells (UV6138 carcinoma; [7]): 6 out of 7 |
| B2 |  |  | significantly retarded | immunity to the UV6139SJ challenge (UV6139SJ carcinoma [4]; [6]): conferred resistance; resistance conferred against the UV6139SJ cells (UV6139SJ carcinoma [4]; [7]): 2 out of 4; kinetics of tumor growth in treated and control mice (UV6139SJ carcinoma [5]; effect appears to diminish after treatment is terminated): immediate inhibitory effect on tumor growth |
| B3 |  |  | not |  |
